From US12599608B2, “Methods for treating cardiac valve disease” (The Regents of the University of California, priority 2018, dated 2026)
Counter-ions that a name gives are not always drawn.

Columns and labels:
Assay type in all cases: cell-based, human
[1] = system: N1^+/− ECs; test: Validation trials of screen candidates by targeted RNA-seq with the trained KNN algorithm; settings: duplicate or triplicate; one or more replicates classified as WT
Description: (§1) Starting on day 15 of differentiation, WT ECs were exposed to 10 μM DMSO (dimethyl sulfoxide) (n=80) while isogenic N1^+/− ECs were exposed to either 10 μM DMSO (n=80) or one of the small molecules from the LOPAC (1280 molecules) (Sigma LO1280) or Sheng Ding (315 molecules) chemical libraries. DMSO or small molecules were renewed with EC media (ScienCell #1001) changes on alternating days until the cells were ultimately collected for analysis on day 21. ECs were imaged using the IN Cell Analyzer on day 21 to evaluate morphology and cell death; wells with extensive cell death were eliminated from final analyses. For validation experiments, promising small molecules identified from the initial screen were applied to N1^+/− ECs in duplicate or triplicate along with controls of DMSO-exposed WT and N1^+/− ECs (n=4 each) using the same process as the initial screen described above.
(§2) ECs were lysed and RNA was isolated using the Qiagen RNeasy 96-well purification kit. RNA was diluted so that it was between the 10 pg-1 ng range accepted by the Cellular Research Precise targeted RNA-seq (RNA sequencing) system. Targeted RNA-seq libraries were prepared as per the Cellular Research Precise protocol (Rev 03092015), which includes both molecule and sample barcoding. The selected 119 target genes (see Table 1) included 3 low-expressing housekeeping genes for normalization (CHMP2A, C1orf43, REEP5) and either predicted central regulatory nodes or peripheral genes positioned within varied regions of the N1 network to permit identification of small molecules that affected central nodes as well as those that may have a synergistic effect in combination due to regulating different aspects of the network. Briefly, RNA was added to the Precise Encoding Plate containing indexed dT primer, dNTPs, and Spike-in mRNA controls and incubated at 65° C. for 3 minutes followed by cooling on ice. A master-mix of RT enzyme, RNase inhibitor, and buffer was then added to the samples, and they were incubated at 42° C. for 30 minutes followed by 80° C. for 5 minutes. Each plate of samples was combined into a single 2 ml tube and purified with AMPureXP beads. N1 PCR master-mix was added and samples were incubated for 94° C. for 2 minutes, followed by 15 cycles of 94° C. for 30 seconds, 55° C. for 3 minutes, and 68° C. for 1 minute, followed by 68° C. for 7 minutes. Samples were purified with AMPureXP beads and N2 PCR master-mix was added. Samples were incubated with the same thermal cycler program as above for 12 cycles. These final libraries were then purified with AMPureXP beads and analyzed for quality and concentration by Agilent Bioanalyzer and Illumina Library Quantification Kit (KAPA Biosystems), respectively. Libraries were normalized to equivalent concentration and pooled for paired-end 100 bp sequencing on an Illumina HiSeq 2500 instrument.
Sequencing data was analyzed using Cellular Research Precise Analysis Pipeline on the SevenBridges platform, which included analyzing sequencing quality with FASTQC, trimming adapters and filtering reads, demultiplexing based on sample barcodes, aligning reads with Bowtie 2, and determining the number of unique molecular indices per gene. Network inference was based on mutual information of gene expression from all DMSO- and small molecule-exposed samples as described in Margolin et al., BMC Bioinformatics. 2006; 7 Suppl 1:S7. Network diagram was generated using NetworkX (Hagberg et al., Exploring Network Structure, Dynamics, and Function using NetworkX. SciPy. 2008) based on network connections inferred from the small molecule screen data as described above with colors based on whole transcriptome RNA-seq gene expression of isogenic N1^+/− compared to WT ECs.
Promising small molecules were identified using either K-nearest neighbor (KNN) or hierarchical clustering algorithms. […]

[2] = system: N1^+/− iPSC-derived ECs; test: Network-based small molecule screen by targeted RNA-seq of 119 genes (KNN and hierarchical clustering); settings: for KNN classification of network gene expression of treated N1^+/− ECs: initial screen of 1595 small molecules, treatment day 15 to day 21 of differentiation, KNN k=2; for hierarchical clustering of transcriptional profile of treated N1-haploinsufficient ECs with WT ECs: initial screen, complete agglomeration method
Text: TALEN-engineered isogenic human iPSCs that were either WT (wild-type) or N1^+/− were derived and characterized as detailed in Theodoris et al., Cell. 2015; 160:1072-1086. Isogenic iPSCs (induced pluripotent stem cells) were differentiated into ECs as previously described (Theodoris et al., 2015; White et al., Stem Cells. 2012; 31:92-103). On day 13 of the differentiation process, ECs were greater than 90% double-positive for CD31 (BD #558068) and CD144 (#FAB9381P) by FACS (fluorescence-activated cell sorting) analysis (FIGS. 9G-H). Small molecule experiments (described below) were conducted at day 15 of differentiation.
as §1, §2
Sequencing data was analyzed using Cellular Research Precise Analysis Pipeline on the SevenBridges platform, which included analyzing sequencing quality with FASTQC, trimming adapters and filtering reads, demultiplexing based on sample barcodes, aligning reads with Bowtie 2, and determining the number of unique molecular indices per gene. Network inference was based on mutual information of gene expression from all DMSO- and small molecule-exposed samples as described in Margolin et al., BMC Bioinformatics. […]

[3] = system: N1^+/− ECs; test: Whole transcriptome RNA-seq of N1^+/− ECs treated with network-correcting molecules
Description: ECs were lysed and RNA was isolated using the Qiagen RNeasy Micro purification kit. RNA-seq libraries were constructed using the Clontech SMRTer Stranded RNA-seq Library Prep Kit for Illumina per kit protocol. Libraries were analyzed by Agilent Bioanalyzer, normalized to equivalent concentration, pooled, gel purified, and sequenced 75 bp paired-end on an Illumina NextSeq instrument with 10% PhiX.
Sequencing quality was assessed with FASTQC (located on the web by placing “www.” in front of “bioinformatics.babraham.ac.uk/projects/fastqc/”). Reads were aligned to the hg19 (Homo sapiens assembly February 2009) transcriptome and genome using the Spliced Transcripts Alignment to a Reference (STAR) Aligner (Dobin et al., Bioinformatics. 2012; 29:15-21) and differential expression was analyzed using Cuffdiff (Trapnell et al., Nat Biotechnol. 2012; 31:46-53). HOPACH was used for clustering with the correlation metric (van der Laan and Pollard; located on the web by placing “www.” in front of “bioconductor.org/packages/devel/bioc/manuals/hopach/man/hopach.pdf”. GO analyses were completed using GO-Elite and ToppGene (Chen et al., Nucleic Acids Research. 2009; 37:W305-W311; Zambon et al., Bioinformatics. 2012; 28:2209-2210). Network diagrams were generated using NetworkX (Hagberg et al., SciPy. 2008) based on network connections inferred from mRNA-seq gene expression of isogenic N1^+/− compared to WT ECs with colors based on whole transcriptome RNA-seq gene expression of DMSO- vs small molecule-treated WT and N1^+/− ECs.

Compound	KNN classification of treated N1^+/− ECs in validation trials [1]	KNN classification of network gene expression of treated N1^+/− ECs [2]	hierarchical clustering of transcriptional profile of treated N1-haploinsufficient ECs with WT ECs [2]	further results
O[C@@](CCN1CCCCC1)(c1ccccc1)[C@@H]1CC2C=CC1C2 (mixture of isomers) [Biperiden_hydrochloride]	classified as WT	–	–	–
CCCCC[C@H](O)/C=C/[C@H]1[C@H](O)CC(=O)[C@@H]1CCCCCCC(=O)O [Alprostadil]	–	classified as WT	–	–
CC(/C=C/c1cccc(Oc2ccc(F)cc2)c1)N(O)C(N)=O (centres unmarked) [BWB70C]	–	–	cluster with WT ECs	–
NC(=O)c1cc(N2CC2)c([N+](=O)[O-])cc1[N+](=O)[O-] [CB_1954, 5-(1-aziridinyl)-2,4-dinitrobenzamide]	classified as WT	classified as WT	–	–
C=C1[C@@H](O)C2/C=C/C[C@H](C)CCCC(=O)/C=C/C(=O)O[C@]23CN[C@@H](Cc2ccccc2)[C@@H]3[C@@H]1C (some centres unmarked) [Cytochalasin]	classified as WT	classified as WT	–	effect on dysregulation of cell motility genes ([3]; FIG. 2A): worsened the dysregulation; repression of genes aberrantly activated in N1-haploinsufficient ECs ([3]; FIG. 2A): effective at downregulating arterial thrombosis and T cell signal genes; repressive effect on cadherin-11 mRNA expression ([3]; FIG. 9A): strongest repressive effect
CC(C)C[C@H](NC(=O)OCC1c2ccccc2-c2ccccc21)C(=O)O [Fmoc-leu, Fmoc-Leucine]	classified as WT	classified as WT	–	–
Cc1ccnc(NS(=O)(=O)c2ccc(NC(=O)Nc3ccc(S(=O)(=O)Nc4nccc(C)n4)cc3)cc2)n1 [GSK837149A]	classified as WT	classified as WT	–	restoration of transcription of genes repressed in N1-haploinsufficient ECs ([3]; FIG. 2A): restored transcription of a complementary group of genes involved in angiogenesis and cardiovascular development; restoration of the N1-dependent network as a whole ([3]; FIGS. 2E, 3A): restored more complementary genes to XCT790
OC1(c2ccc(Cl)cc2)CCN(Cc2c[nH]c3ccccc23)CC1 [L-741,626]	–	classified as WT	–	–
C=CCN1CC[C@]23c4c5ccc(O)c4O[C@H]2/C(=N/NC(=O)c2ccccc2)CC[C@@]3(O)[C@H]1C5 [Naloxone benzoylhydrazone]	–	classified as WT	–	–
CCn1cc(C(=O)O)c(=O)c2cc(F)c(N3CCNCC3)cc21 [Norfloxacin]	–	classified as WT	–	–
NCCCCN [Putrescine dihydrochloride, Butane-1,4-diamine]	classified as WT	–	–	–
CC(C)(C(=O)NCC(F)(F)C(F)(F)F)C(=O)N[C@@H]1C(=O)Nc2ccccc2-c2ccccc21 [RO-4929097]	classified as WT	classified as WT	–	–
CC(C)(C)NCC(O)c1ccccc1Cl (centres unmarked) [Tulobuterol_hydrochloride, tulobuterol hydrochloride]	–	classified as WT	–	–
OCc1ccc(-c2nn(Cc3ccccc3)c3ccccc23)o1 [YC-1]	–	classified as WT	–	–
C=CCc1ccccc1OCC(O)CNC(C)C (centres unmarked) [alprenolol]	–	–	cluster with WT ECs	–
CCCCc1oc2ccccc2c1C(=O)c1cc(I)c(OCCN(CC)CC)c(I)c1 [amiodarone]	–	–	cluster with WT ECs	–
C[N+](C)(C)CCOC(N)=O [carbachol]	–	–	cluster with WT ECs	–
Cc1ccc(N(CC2=NCCN2)c2cccc(O)c2)cc1 [phentolamine mesylate]	–	–	cluster with WT ECs	–
CN1C(C(=O)Nc2ccccn2)=C(O)c2ccccc2S1(=O)=O [piroxicam]	–	–	cluster with WT ECs	–
